Results reported in PubChem BioAssay (NCI).
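Compound exposure: 48 hours, 5 concentrations, 96-well plates. TGI: concentration producing complete growth inhibition.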

Columns and labels:
Experiment in all cases: NCI anticancer screen, dose series, 48 h
[1] = system: CCRF-CEM leukemia
[2] = system: UACC-62 melanoma
[3] = system: SF-268 CNS
[4] = system: OVCAR-5 ovarian
[5] = system: NCI-H23 lung
[6] = system: OVCAR-3 ovarian
[7] = system: SN12C renal
[8] = system: 786-0 renal
[9] = system: HOP-62 NSCLC
[10] = system: SK-OV-3 ovarian
[11] = system: NCI-H226 lung
[12] = system: EKVX NSCLC
[13] = system: HL-60(TB) leukemia
[14] = system: A498 renal
[15] = system: HOP-92 NSCLC
[16] = system: RXF 393 renal
[17] = system: MDA-MB-435
[18] = system: BT-549 breast

| SMILES | TGI [1] | TGI [2] | TGI [3] | TGI [4] | TGI [5] | TGI [6] | TGI [7] | TGI [8] | TGI [9] | TGI [10] | TGI [11] | TGI [12] | TGI [13] | TGI [14] | TGI [15] | TGI [16] | TGI [17] | TGI [18] |
| --- | --- | --- | --- | --- | --- | --- | --- | --- | --- | --- | --- | --- | --- | --- | --- | --- | --- | --- |
| O=c1[nH]c(=O)n(C2CC(O)C(CO)O2)cc1C#Cc1cc(F)cc(F)c1 (stereo unspecified) | > 100 µM | > 100 µM | > 100 µM | > 100 µM | > 100 µM | > 100 µM | > 100 µM | > 100 µM | > 100 µM | > 100 µM | > 100 µM | > 100 µM | – | – | – | – | – | – |
| COC(=O)CCC(=O)c1ccc2c(c1)CC1(C2)Cc2ccc3c(c2C1)CCCC3=O (stereo unspecified) | 11 µM | > 100 µM | > 100 µM | > 100 µM | > 76.5 µM | 47.7 µM | > 100 µM | > 85.2 µM | 97.4 µM | > 100 µM | 85.6 µM | > 100 µM | 13.4 µM | 82.8 µM | 64.7 µM | 97.4 µM | 19.9 µM | – |
| Cc1nc2c(ncn2CCO)c(=O)[nH]1 | > 100 µM | > 100 µM | > 100 µM | > 100 µM | > 100 µM | > 100 µM | > 100 µM | > 100 µM | > 100 µM | > 100 µM | > 100 µM | > 100 µM | > 100 µM | > 100 µM | – | > 100 µM | > 100 µM | – |
| O=C1C[C@H]2[C@H](c3ccc(Br)cc3)[C@H]3C(=O)c4ccccc4NC(=O)[C@@H]3[C@@]2(O)c2ccccc2N1 | 53.3 µM | 61.5 µM | > 100 µM | 91.9 µM | 38.9 µM | 37 µM | > 100 µM | 99.2 µM | 49.7 µM | 78.8 µM | > 100 µM | > 100 µM | 15.3 µM | 78.8 µM | 4.96 µM | 26 µM | 26.9 µM | – |
| CCOC(=O)NC(=O)c1cn(CCSCCOC(=O)NCCCCCCNC(=O)OCCSCCn2cc(C(=O)NC(=O)OCC)c(=O)[nH]c2=O)c(=O)[nH]c1=O | > 100 µM | > 100 µM | – | – | > 100 µM | > 100 µM | > 100 µM | – | > 100 µM | > 100 µM | – | > 100 µM | > 100 µM | – | > 100 µM | > 100 µM | – | – |
| COc1cc(/C=C(\C#N)c2ccccn2)cc(Br)c1O | > 100 µM | > 100 µM | > 100 µM | > 100 µM | > 100 µM | > 100 µM | > 100 µM | > 100 µM | > 100 µM | > 100 µM | > 100 µM | > 100 µM | > 100 µM | – | – | > 100 µM | – | > 100 µM |
| CC(=O)Nc1ccc(-c2nc3ccccc3s2)cc1O | > 100 µM | 83.1 µM | > 100 µM | 93.8 µM | > 100 µM | > 100 µM | > 100 µM | > 100 µM | > 100 µM | – | 45.9 µM | – | – | > 100 µM | > 100 µM | > 100 µM | > 100 µM | – |
| CP(C)(=S)P(C)(C)=S | > 100 µM | > 100 µM | > 100 µM | > 100 µM | > 100 µM | – | > 100 µM | > 100 µM | > 100 µM | > 100 µM | > 100 µM | > 100 µM | > 100 µM | – | – | > 100 µM | – | > 100 µM |
| CCOC(=O)C1(Cc2ccccc2)Cc2ccccc2C1=O (stereo unspecified) | 95.5 µM | 81.7 µM | > 100 µM | > 100 µM | 69.9 µM | > 100 µM | > 100 µM | > 100 µM | > 100 µM | > 100 µM | 58.6 µM | 97.8 µM | > 100 µM | – | 56 µM | – | 45.3 µM | – |
| CC1=NN(C(=O)Cc2ccccc2)C(=O)/C1=C\c1ccco1 | > 100 µM | – | > 100 µM | > 100 µM | > 100 µM | > 100 µM | > 100 µM | > 100 µM | > 100 µM | – | > 100 µM | > 100 µM | > 100 µM | – | – | – | – | – |
| COc1ccc([C@@H]2CC(=O)NCCCCNCCCN2)cc1 | > 100 µM | > 100 µM | > 100 µM | > 100 µM | > 100 µM | – | > 100 µM | > 100 µM | > 100 µM | > 100 µM | > 100 µM | > 100 µM | > 100 µM | > 100 µM | > 100 µM | > 100 µM | – | – |
| S=C(Nc1ccccc1)N1N=C2c3ccccc3CC[C@H]2[C@@H]1c1ccccc1 | – | > 100 µM | > 100 µM | > 100 µM | > 100 µM | > 100 µM | > 100 µM | > 100 µM | > 100 µM | > 100 µM | > 100 µM | > 100 µM | 4.83 µM | > 100 µM | – | > 100 µM | – | – |
| Cc1cc(NCCCCCCNc2cc(C)nc3ccc(Cl)cc23)c2cc(Cl)ccc2n1 | 83.6 µM | 36 µM | 32.5 µM | 34.7 µM | 30.7 µM | 32 µM | 47.2 µM | 32 µM | > 100 µM | > 100 µM | > 100 µM | 30.4 µM | 47.8 µM | > 100 µM | – | 30.6 µM | – | – |
| COc1cc(C=O)c(-c2cc3c(cc2C=O)OCO3)c(OC)c1OC | > 290 µM | > 290 µM | > 290 µM | > 290 µM | 222 µM | 153 µM | 260 µM | > 290 µM | > 290 µM | > 290 µM | 280 µM | > 290 µM | > 290 µM | – | 241 µM | 154 µM | – | – |
| CCNCCCCNCC | > 3750 µM | > 3750 µM | > 3750 µM | > 3750 µM | > 3750 µM | > 3750 µM | > 3750 µM | – | > 3750 µM | > 3750 µM | > 3750 µM | > 3750 µM | > 1190 µM | > 3750 µM | > 3750 µM | > 3750 µM | – | – |
